Results from US9994570B2, “Bridged diazepane orexin receptor antagonists” (MERCK SHARP & DOHME CORP., priority 2014, dated 2018).

Columns and labels:
[1] = biological target: T1, human orexin-2 receptor (Homo sapiens, UniProt O43614); assay: FLIPR Ca2+ flux assay, OX2R; format: cell-based; details: for IC50: CHO cells expressing the human orexin-2 receptor, agonist 70 pM Ala-6,12 orexin-A; for Fold Selective: OX1R FLIPR / OX2R FLIPR
T1 construct: expressed in transfected cells; host or cells: CHO cells (grown under G418 selection)
T1 sequence (O43614 1-444): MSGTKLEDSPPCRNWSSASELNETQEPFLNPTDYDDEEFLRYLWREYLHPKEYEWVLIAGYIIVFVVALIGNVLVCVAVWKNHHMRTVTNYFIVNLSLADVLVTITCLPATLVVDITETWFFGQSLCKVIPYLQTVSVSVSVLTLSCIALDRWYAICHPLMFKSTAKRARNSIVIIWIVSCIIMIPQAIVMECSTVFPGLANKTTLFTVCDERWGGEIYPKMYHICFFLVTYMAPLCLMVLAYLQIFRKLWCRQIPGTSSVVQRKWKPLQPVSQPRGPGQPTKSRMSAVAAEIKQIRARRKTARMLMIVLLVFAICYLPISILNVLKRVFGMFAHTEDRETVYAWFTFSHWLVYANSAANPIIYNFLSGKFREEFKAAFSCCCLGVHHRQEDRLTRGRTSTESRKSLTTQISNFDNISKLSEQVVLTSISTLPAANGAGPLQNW
Experimental: (§1) The utility of the compounds in accordance with the present invention as orexin receptor OX1R and/or OX2R antagonists may be readily determined without undue experimentation by methodology well known in the art, including the “FLIPR Ca^2+ Flux Assay” (Okumura et al., Biochem. Biophys. Res. Comm. 280:976-981, 2001). In a typical experiment the OX1 and OX2 receptor antagonistic activity of the compounds of the present invention was determined in accordance with the following experimental method. For intracellular calcium measurements, Chinese hamster ovary (CHO) cells expressing the rat orexin-1 receptor or the human orexin-2 receptor, are grown in Iscove's modified DMEM containing 2 mM L-glutamine, […], 1% hypoxanthine-thymidine supplement, 100 U/ml penicillin, 100 μg/ml streptomycin and 10% heat-inactivated fetal calf serum (FCS). The cells are seeded at 20,000 cells/well into Becton-Dickinson black 384-well clear bottom sterile plates coated with poly-D-lysine. All reagents were from GIBCO-Invitrogen Corp. The seeded plates are incubated overnight at 37° C. and 5% CO2. Ala-6,12 human orexin-A as the agonist is prepared as a 1 mM stock solution in 1% bovine serum albumin (BSA) and diluted in assay buffer (HBSS containing 20 mM HEPES, 0.1% BSA and 2.5 mM probenecid, pH7.4) for use in the assay at a final concentration of 70 pM. Test compounds are prepared as 10 mM stock solution in DMSO, then diluted in 384-well plates, first in DMSO, then assay buffer. On the day of the assay, cells are washed 3 times with 100 μl assay buffer and then incubated for 60 min (37° C., 5% CO2) in 60 μl assay buffer containing 1 μM Fluo-4AM ester, 0.02% pluronic acid, and 1% BSA. The dye loading solution is then aspirated and cells are washed 3 times with 100 μl assay buffer. 30 μl of that same buffer is left in each well. Within the Fluorescent Imaging Plate Reader (FLIPR, Molecular Devices), test compounds are added to the plate in a volume of 25 μl, incubated for 5 min and finally 25 μl of agonist is added. Fluorescence is measured for each well at 1 second intervals for 5 minutes and the height of each fluorescence peak is compared to the height of the fluorescence peak induced by 70 pM Ala-6,12 orexin-A with buffer in place of antagonist. For each antagonist, IC50 value (the concentration of compound needed to inhibit 50% of the agonist response) is determined. Alternatively, compound potency can be assessed by a radioligand binding assay (described in Bergman et. al. Bioorg. Med. Chem. Lett. 2008, 18, 1425-1430) in which the inhibition constant (Ki) is determined in membranes prepared from CHO cells expressing either the OX1 or OX2 receptor. The intrinsic orexin receptor antagonist activity of a compound which may be used in the present invention may be determined by these assays.

[2] = biological target: T2, rat orexin-1 receptor (Rattus norvegicus, UniProt P56718); assay: FLIPR Ca2+ flux assay, OX1R; format: cell-based; details: CHO cells expressing the rat orexin-1 receptor; agonist 70 pM Ala-6,12 orexin-A
T2 construct: expressed in transfected cells; host or cells: CHO cells (grown under G418 selection)
T2 sequence (P56718 1-416): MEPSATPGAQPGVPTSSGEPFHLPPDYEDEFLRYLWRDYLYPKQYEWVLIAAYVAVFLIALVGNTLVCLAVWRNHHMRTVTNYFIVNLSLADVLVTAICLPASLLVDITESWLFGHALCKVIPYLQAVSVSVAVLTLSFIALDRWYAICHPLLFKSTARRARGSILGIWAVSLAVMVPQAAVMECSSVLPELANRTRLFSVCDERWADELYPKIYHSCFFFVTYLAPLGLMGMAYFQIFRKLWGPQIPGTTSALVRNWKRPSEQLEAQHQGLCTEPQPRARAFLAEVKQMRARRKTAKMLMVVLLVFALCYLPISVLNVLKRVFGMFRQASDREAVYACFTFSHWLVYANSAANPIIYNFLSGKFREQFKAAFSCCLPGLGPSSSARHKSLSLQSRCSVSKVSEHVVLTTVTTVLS
Experimental: as §1

`Cc1cc(C)nc(N2CC3CC2CN(C(=O)c2cccnc2N(C)CC(F)F)C3)n1` (single isomer, unassigned) [Example 47] was tested, and the IC50 [1] was 29 nM, the “Fold Selective” value [1] was 261 and the IC50 [2] was 7560 nM.

`Cc1cc(C#N)nc(N2CC3CC2CN(C(=O)c2ccccc2CC(F)(F)F)C3)n1` (stereo not drawn) [Example 1, 6-methyl-2-(3-(2-(2,2,2-trifluoroethyl)benzoyl)-3,6-diazabicyclo[3.2.1]octan-6-yl)pyrimidine-4-carbonitrile] was tested, and the IC50 [1] was 23 nM, the “Fold Selective” value [1] was 81 and the IC50 [2] was 1870 nM.

For `Cc1cc(C#N)nc(N2CC3CC2CN(C(=O)c2ccccc2OC(F)F)C3)n1` (stereo not drawn) [Example 2, 2-(3-(2-(difluoromethoxy)benzoyl)-3,6-diazabicyclo[3.2.1]-octan-6-yl)-6-methylpyrimidine-4-carbonitrile], the IC50 [1] was 46 nM, the “Fold Selective” value [1] was greater than 217 and the IC50 [2] was greater than 10000 nM.

In the case of `Cc1cc(C#N)nc(N2CC3CC2CN(C(=O)c2ccccc2OCC(F)(F)F)C3)n1` (stereo not drawn) [Example 3, 6-methyl-2-(3-(2-(2,2,2-trifluoroethoxy)benzoyl)-3,6-diazabicyclo[3.2.1]octan-6-yl)pyrimidine-4-carbonitrile], the IC50 [1] is reported as 18 nM, the “Fold Selective” value [1] is reported as 178 and the IC50 [2] is reported as 3210 nM.

For `Cc1cc(C#N)nc(N2CC3CC2CN(C(=O)c2cccnc2OCC(F)F)C3)n1` (stereo not drawn) [Example 4, 2-(3-{[2-(2,2-difluoroethoxy)pyridin-3-yl]carbonyl}-3,6-diazabicyclo[3.2.1]oct-6-yl)-6-methylpyrimidine-4-carbonitrile], the IC50 [1] was 19 nM, the “Fold Selective” value [1] was 174 and the IC50 [2] was 3300 nM.

In the case of `Cc1cc(C#N)nc(N2CC3CC2CN(C(=O)c2cccnc2C2CC2)C3)n1` (stereo not drawn) [Example 5, 2-(3-(2-cyclopropylnicotinoyl)-3,6-diazabicyclo[3.2.1]octan-6-yl)-6-methylpyrimidine-4-carbonitrile], the IC50 [1] is reported as 81 nM, the “Fold Selective” value [1] is reported as greater than 123 and the IC50 [2] is reported as greater than 10000 nM.

For `Cc1cc(C#N)nc(N2CC3CC2CN(C(=O)c2ccccc2CS(C)(=O)=O)C3)n1` (stereo not drawn) [Example 7, 6-methyl-2-(3-(2-((methylsulfonyl)methyl)benzoyl)-3,6-diazabicyclo[3.2.1]octan-6-yl)pyrimidine-4-carbonitrile], the IC50 [1] was 61 nM, the “Fold Selective” value [1] was greater than 164 and the IC50 [2] was greater than 10000 nM.

`Cc1cc(C)nc(N2CC3CC2CN(C(=O)c2cc(F)cnc2C2CC2)C3)n1` (stereo not drawn) [Example 8] was tested, and the IC50 [1] was 29 nM, the “Fold Selective” value [1] was 202 and the IC50 [2] was 5860 nM.

`Cc1cc(C)nc(N2CC3CC2CN(C(=O)c2cccnc2OCC(F)F)C3)n1` (stereo not drawn) [Example 9, (2-(2,2-difluoroethoxy)pyridin-3-yl)(6-(4,6-dimethylpyrimidin-2-yl)-3,6-diazabicyclo[3.2.1]octan-3-yl)methanone] was tested, and the IC50 [1] was 15 nM, the “Fold Selective” value [1] was 122 and the IC50 [2] was 1830 nM.

For `COCc1ccccc1C(=O)N1CC2CC(C1)N(c1nc(C)cc(C)n1)C2` (stereo not drawn) [Example 10, (6-(4,6-dimethylpyrimidin-2-yl)-3,6-diazabicyclo[3.2.1]octan-3-yl)(2-(methoxymethyl)phenyl)methanone], the IC50 [1] was 46 nM, the “Fold Selective” value [1] was 74 and the IC50 [2] was 3410 nM.

In the case of `Cc1cc(C)nc(N2CC3CC2CN(C(=O)c2ccccc2C2CC2)C3)n1` (stereo not drawn) [Example 11, 3-[(2-cyclopropylphenyl)-carbonyl]-6-(4,6-dimethylpyrimidin-2-yl)-3,6-diazabicyclo[3.2.1]octane], the IC50 [1] is reported as 13 nM, the “Fold Selective” value [1] is reported as 47 and the IC50 [2] is reported as 613 nM.

`Cc1cc(C)nc(N2CC3CC2CN(C(=O)c2cc(F)ccc2C2CC2)C3)n1` (stereo not drawn) [Example 12, 3-[(2-cyclopropyl-5-fluorophenyl)carbonyl]-6-(4,6-dimethylpyrimidin-2-yl)-3,6-diazabicyclo[3.2.1]octane] was tested, and the IC50 [1] was 22 nM, the “Fold Selective” value [1] was 47 and the IC50 [2] was 1040 nM.

`COc1ccc(C(=O)N2CC3CC(C2)N(c2nc(C)cc(C)n2)C3)c(C2CC2)n1` (stereo not drawn) [Example 13, 3-[(2-cyclopropyl-6-methoxypyridin-3-yl)carbonyl]-6-(4,6-dimethylpyrimidin-2-yl)-3,6-diazabicyclo[3.2.1]octane] was tested, and the IC50 [1] was 41 nM, the “Fold Selective” value [1] was 87 and the IC50 [2] was 3550 nM.

For `Cc1cc(C)nc(N2CC3CC2CN(C(=O)c2ccc(F)cc2C2CC2)C3)n1` (stereo not drawn) [Example 14, 3-[(2-cyclopropyl-4-fluorophenyl)carbonyl]-6-(4,6-dimethylpyrimidin-2-yl)-3,6-diazabicyclo[3.2.1]octane], the IC50 [1] was 26 nM, the “Fold Selective” value [1] was 56 and the IC50 [2] was 1450 nM.

For `Cc1cc(C)nc(N2CC3CC2CN(C(=O)c2ccccc2OC(F)(F)F)C3)n1` (stereo not drawn) [Example 15, 6-(4,6-dimethylpyrimidin-2-yl)-3-{[2-(trifluoromethoxy)-phenyl]carbonyl}-3,6-diazabicyclo[3.2.1]octane], the IC50 [1] was 30 nM, the “Fold Selective” value [1] was 51 and the IC50 [2] was 1530 nM.

For `Cc1cc(C)nc(N2CC3CC2CN(C(=O)c2ccccc2OC(C)C)C3)n1` (stereo not drawn) [Example 16, 6-(4,6-dimethylpyrimidin-2-yl)-3-{[2-(1-methylethoxy)-phenyl]carbonyl}-3,6-diazabicyclo[3.2.1]octane], the IC50 [1] was 16 nM, the “Fold Selective” value [1] was 61 and the IC50 [2] was 982 nM.

In the case of `CSc1ccccc1C(=O)N1CC2CC(C1)N(c1nc(C)cc(C)n1)C2` (stereo not drawn) [Example 17, 6-(4,6-dimethylpyrimidin-2-yl)-3-{[2-(methylsulfanyl)-phenyl]carbonyl}-3,6-diazabicyclo[3.2.1]octane], the IC50 [1] is reported as 27 nM, the “Fold Selective” value [1] is reported as 92 and the IC50 [2] is reported as 2470 nM.

In the case of `Cc1cc(C)nc(N2CC3CC2CN(C(=O)c2ccccc2C2(F)CC2)C3)n1` (stereo not drawn) [Example 18, 6-(4,6-dimethylpyrimidin-2-yl)-3-{[2-(1-fluorocyclopropyl)-phenyl]carbonyl}-3,6-diazabicyclo[3.2.1]octane], the IC50 [1] is reported as 15 nM, the “Fold Selective” value [1] is reported as 58 and the IC50 [2] is reported as 872 nM.

In the case of `Cc1cc(C)nc(N2CC3CC2CN(C(=O)c2ccccc2-n2ncnn2)C3)n1` (stereo not drawn) [Example 19, 6-(4,6-dimethylpyrimidin-2-yl)-3-{[2-(2H-tetrazol-2-yl)phenyl]carbonyl}-3,6-diazabicyclo[3.2.1]octane], the IC50 [1] is reported as 36 nM, the “Fold Selective” value [1] is reported as 44 and the IC50 [2] is reported as 1600 nM.

For `Cc1cc(C)nc(N2CC3CC2CN(C(=O)c2nccnc2-n2cccn2)C3)n1` (stereo not drawn) [Example 20, 6-(4,6-dimethylpyrimidin-2-yl)-3-{[3-(1H-pyrazol-1-yl)pyrazin-2-yl]carbonyl}-3,6-diazabicyclo[3.2.1]octane], the IC50 [1] was 50 nM, the “Fold Selective” value [1] was 68 and the IC50 [2] was 3400 nM.

For `Cc1cc(C)nc(N2CC3CC2CN(C(=O)c2cccnc2OC(C)C)C3)n1` (stereo not drawn) [Example 21, 6-(4,6-dimethylpyrimidin-2-yl)-3-{[2-(1-methylethoxy)pyridin-3-yl]carbonyl}-3,6-diazabicyclo[3.2.1]octane], the IC50 [1] was 18 nM, the “Fold Selective” value [1] was 148 and the IC50 [2] was 2670 nM.
